Read-outs that look alike come from different tables or passages of the source.
Columns and labels:
Assay type in all cases: in vivo
[1] = system: adult Tetranychus cinnabarinus; experiment: Activity assay of adult Tetranychus cinnabarinus (whole-plant spray on bean seedlings); details: 48 h; for pest or weed control at 1.25 µg/mL: concentration 1.25 mg/L
Summary of the method: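 Whole plants sprayed after adult mite inoculation and initial census, using compound dissolved in DMF and made up with 1‰ Tween 80 water (DMF not above 10%). Mortality derived from survivor counts at 48 h after treatment. Each treatment run in triplicate.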

[2] = system: Eggs of Tetranychus Cinnabarinus; experiment: Activity assay of eggs of Tetranychus cinnabarinus (spray method, ovicidal); details: Tetranychus cinnabarinus; for pest or weed control at 2 µg/mL: concentration 2 mg/L
Summary of the method: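 Ovicidal spray test: compound dissolved in DMF, diluted with 1‰ Tween 80 (DMF ≤10%), sprayed on eggs laid during 24 h by females on broad bean leaves. Culture at 26±2° C, 70–80% RH, 16 h photoperiod; non-hatched eggs scored as dead when blank control hatched; three repeats.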

[3] = system: Tetranychus cinnabarinus Nymphs; experiment: Activity assay of Tetranychus cinnabarinus nymphs (spray on broad bean leaves)
Summary of the method: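 Mortality, judged as no response to gentle touch, was scored 48 h after spraying Tetranychus cinnabarinus nymphs on broad bean leaves (eggs from females removed after 24 h). Test solutions: DMF-dissolved compound, ≤10% DMF, in 1‰ Tween 80; 26±2° C., 70%–80% RH, 16 h light; triplicate, blank control.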

[4] = concentration 2.5 mg/L, read-out: adult mite-killing activity
[5] = concentration 5 mg/L, spray, non-incubated eggs counted as dead, read-out: ovicidal activity
[6] = 48 h, concentration 2.5 mg/L, read-out: nymph-killing activity
[7] = read-out: adult mite-killing activity
[8] = 48 h, read-out: nymph-killing activity
[9] = concentration 2.5 mg/L, 48 h, read-out: nymph-killing activity
[10] = adult mites, parallel determination, read-out: Death rate (%)
[11] = spray, read-out: ovicidal activity
[12] = eggs, parallel determination, read-out: Death rate (%)
[13] = 48 h, concentration 2 mg/L, read-out: nymph-killing activity
[14] = 48 h, nymphs, concentration 0.5 mg/L, parallel determination, read-out: Death rate (%)

SMILES	pest or weed control at 2.5 µg/mL [1, 4] [%]	pest or weed control at 5 µg/mL [2, 5] [%]	pest or weed control at 2.5 µg/mL [3, 6] [%]	other results
Cc1nn(C)c(/C(OC(C)OC(=O)C(C)(C)C)=C(\C#N)c2ccc(C(C)(C)C)cc2)c1C (stereo not drawn) [Compound 180]	≥ 90	≥ 90	≥ 95	–
CCCCC(=O)OC(C)O/C(=C(/C#N)c1ccc(C(C)(C)C)cc1)c1c(C)c(C)nn1C (stereo not drawn) [Compound 181]	≥ 90	≥ 90	≥ 95	–
Cc1nn(C)c(/C(OC(C)OC(=O)CC(C)C)=C(\C#N)c2ccc(C(C)(C)C)cc2)c1C (stereo not drawn) [Compound 182]	≥ 90	≥ 90	≥ 95	–
COCC(=O)OC(C)O/C(=C(/C#N)c1ccc(C(C)(C)C)cc1)c1c(C)c(C)nn1C (stereo not drawn) [Compound 183]	≥ 90	≥ 90	≥ 95	–
Cc1nn(C)c(/C(OC(C)OC(=O)C2CC2)=C(\C#N)c2ccc(C(C)(C)C)cc2)c1C (stereo not drawn) [Compound 184]	≥ 90	≥ 90	≥ 95	–
CSCC(=O)OC(C)O/C(=C(/C#N)c1ccc(C(C)(C)C)cc1)c1c(C)c(C)nn1C (stereo not drawn) [Compound 185]	≥ 90	≥ 90	≥ 95	–
Cc1nn(C)c(/C(OC(C)OC(=O)C2CCCCC2)=C(\C#N)c2ccc(C(C)(C)C)cc2)c1C (stereo not drawn) [Compound 186]	≥ 90	≥ 90	≥ 95	–
Cc1nn(C)c(/C(OC(C)OC(=O)CF)=C(\C#N)c2ccc(C(C)(C)C)cc2)c1C (stereo not drawn) [Compound 187]	–	–	–	pest or weed control at 2.5 µg/mL [1, 7]: ≥ 90%; pest or weed control at 5 µg/mL ([2]; read-out: ovicidal activity): ≥ 90%; pest or weed control at 2.5 µg/mL [3, 8]: ≥ 95%
Cc1nn(C)c(/C(OC(C)OC(=O)C(F)(F)F)=C(\C#N)c2ccc(C(C)(C)C)cc2)c1C (stereo not drawn) [Compound 188]	≥ 90	≥ 90	≥ 95	–
Cc1nn(C)c(/C(OC(C)OC(=O)c2ccccc2)=C(\C#N)c2ccc(C(C)(C)C)cc2)c1C (stereo not drawn) [Compound 189]	≥ 90	≥ 90	≥ 95	–
Cc1nn(C)c(/C(OC(C)OC(=O)Cc2ccccc2)=C(\C#N)c2ccc(C(C)(C)C)cc2)c1C (stereo not drawn) [Compound 190]	≥ 90	≥ 90	–	pest or weed control at 2.5 µg/mL [3, 9]: ≥ 95%
CCC(C)(C)C(=O)OC(C)O/C(=C(/C#N)c1ccc(C(C)(C)C)cc1)c1c(C)c(C)nn1C (stereo not drawn) [Compound 191]	≥ 90	≥ 90	≥ 95	–
C=CC(=O)OC(C)O/C(=C(/C#N)c1ccc(C(C)(C)C)cc1)c1c(C)c(C)nn1C (stereo not drawn) [Compound 192]	≥ 90	≥ 90	≥ 95	–
CCn1nc(C)cc1/C(OCOC(C)=O)=C(\C#N)c1ccc(C(C)(C)C)cc1 [Compound 226]	≥ 90	≥ 90	≥ 95	pest or weed control at 1.25 µg/mL [1, 10]: 96%; pest or weed control at 1.25 µg/mL [1, 7]: ≥ 90%; pest or weed control at 2 µg/mL [2, 11]: ≥ 90%; pest or weed control at 2 µg/mL [2, 12]: 100%; pest or weed control at 2 µg/mL [3, 13]: ≥ 90%; pest or weed control at 0.5 µg/mL [3, 14]: 90%
CCC(=O)OCO/C(=C(/C#N)c1ccc(C(C)(C)C)cc1)c1cc(C)nn1CC [Compound 227]	≥ 90	≥ 90	≥ 95	pest or weed control at 1.25 µg/mL [1, 10]: 98%; pest or weed control at 1.25 µg/mL [1, 7]: ≥ 90%; pest or weed control at 2 µg/mL [2, 11]: ≥ 90%; pest or weed control at 2 µg/mL [2, 12]: 97%; pest or weed control at 2 µg/mL [3, 13]: ≥ 90%; pest or weed control at 0.5 µg/mL [3, 14]: 94%
CCCC(=O)OCO/C(=C(/C#N)c1ccc(C(C)(C)C)cc1)c1cc(C)nn1CC [Compound 228]	≥ 90	≥ 90	≥ 95	–
CCn1nc(C)cc1/C(OCOC(=O)C(C)C)=C(\C#N)c1ccc(C(C)(C)C)cc1 [Compound 229]	≥ 90	≥ 90	≥ 95	–

SMILES	pest or weed control at 2.5 µg/mL [1, 4] [%]	pest or weed control at 5 µg/mL [2, 5] [%]	pest or weed control at 2.5 µg/mL [3, 6] [%]	other results
CCn1nc(C)cc1/C(OCOC(=O)C(C)(C)C)=C(\C#N)c1ccc(C(C)(C)C)cc1 [Compound 230]	≥ 90	≥ 90	≥ 95	pest or weed control at 1.25 µg/mL [1, 10]: 100%; pest or weed control at 1.25 µg/mL [1, 7]: ≥ 90%; pest or weed control at 2 µg/mL [2, 11]: ≥ 90%; pest or weed control at 2 µg/mL [2, 12]: 100%; pest or weed control at 2 µg/mL [3, 13]: ≥ 90%; pest or weed control at 0.5 µg/mL [3, 14]: 98%
CCCCC(=O)OCO/C(=C(/C#N)c1ccc(C(C)(C)C)cc1)c1cc(C)nn1CC [Compound 231]	≥ 90	≥ 90	≥ 95	–
CCn1nc(C)cc1/C(OCOC(=O)CC(C)C)=C(\C#N)c1ccc(C(C)(C)C)cc1 [Compound 232]	≥ 90	≥ 90	≥ 95	–
CCn1nc(C)cc1/C(OCOC(=O)COC)=C(\C#N)c1ccc(C(C)(C)C)cc1 [Compound 233]	≥ 90	≥ 90	≥ 95	–
CCn1nc(C)cc1/C(OCOC(=O)C1CC1)=C(\C#N)c1ccc(C(C)(C)C)cc1 [Compound 234]	≥ 90	≥ 90	≥ 95	pest or weed control at 1.25 µg/mL [1, 10]: 100%; pest or weed control at 1.25 µg/mL [1, 7]: ≥ 90%; pest or weed control at 2 µg/mL [2, 11]: ≥ 90%; pest or weed control at 2 µg/mL [2, 12]: 100%; pest or weed control at 2 µg/mL [3, 13]: ≥ 90%; pest or weed control at 0.5 µg/mL [3, 14]: 96%
CCn1nc(C)cc1/C(OCOC(=O)CSC)=C(\C#N)c1ccc(C(C)(C)C)cc1 [Compound 235]	≥ 90	≥ 90	≥ 95	–
CCn1nc(C)cc1/C(OCOC(=O)C1CCCCC1)=C(\C#N)c1ccc(C(C)(C)C)cc1 [Compound 236]	≥ 90	≥ 90	≥ 95	–
CCn1nc(C)cc1/C(OCOC(=O)CF)=C(\C#N)c1ccc(C(C)(C)C)cc1 [Compound 237]	–	–	–	pest or weed control at 2.5 µg/mL [1, 7]: ≥ 90%; pest or weed control at 5 µg/mL ([2]; read-out: ovicidal activity): ≥ 90%; pest or weed control at 2.5 µg/mL [3, 8]: ≥ 95%
CCn1nc(C)cc1/C(OCOC(=O)C(F)(F)F)=C(\C#N)c1ccc(C(C)(C)C)cc1 [Compound 238]	≥ 90	≥ 90	≥ 95	–
CCn1nc(C)cc1/C(OCOC(=O)c1ccccc1)=C(\C#N)c1ccc(C(C)(C)C)cc1 [Compound 239]	≥ 90	≥ 90	≥ 95	–
CCn1nc(C)cc1/C(OCOC(=O)Cc1ccccc1)=C(\C#N)c1ccc(C(C)(C)C)cc1 [Compound 240]	≥ 90	≥ 90	–	pest or weed control at 2.5 µg/mL [3, 9]: ≥ 95%
CCn1nc(C)cc1/C(OCOC(=O)C(C)(C)CC)=C(\C#N)c1ccc(C(C)(C)C)cc1 [Compound 241]	≥ 90	≥ 90	≥ 95	pest or weed control at 1.25 µg/mL [1, 10]: 100%; pest or weed control at 2 µg/mL [2, 12]: 100%; pest or weed control at 0.5 µg/mL [3, 14]: 100%
C=CC(=O)OCO/C(=C(/C#N)c1ccc(C(C)(C)C)cc1)c1cc(C)nn1CC [Compound 242]	≥ 90	≥ 90	≥ 95	–
CCn1nc(C)cc1/C(OC(C)OC(C)=O)=C(\C#N)c1ccc(C(C)(C)C)cc1 (stereo not drawn) [Compound 251]	≥ 90	≥ 90	≥ 95	pest or weed control at 1.25 µg/mL [1, 10]: 100%; pest or weed control at 1.25 µg/mL [1, 7]: ≥ 90%; pest or weed control at 2 µg/mL [2, 11]: ≥ 90%; pest or weed control at 2 µg/mL [2, 12]: 100%; pest or weed control at 2 µg/mL [3, 13]: ≥ 90%; pest or weed control at 0.5 µg/mL [3, 14]: 100%
CCC(=O)OC(C)O/C(=C(/C#N)c1ccc(C(C)(C)C)cc1)c1cc(C)nn1CC (stereo not drawn) [Compound 252]	≥ 90	≥ 90	≥ 95	pest or weed control at 1.25 µg/mL [1, 10]: 100%; pest or weed control at 1.25 µg/mL [1, 7]: ≥ 90%; pest or weed control at 2 µg/mL [2, 11]: ≥ 90%; pest or weed control at 2 µg/mL [2, 12]: 100%; pest or weed control at 2 µg/mL [3, 13]: ≥ 90%; pest or weed control at 0.5 µg/mL [3, 14]: 100%
CCCC(=O)OC(C)O/C(=C(/C#N)c1ccc(C(C)(C)C)cc1)c1cc(C)nn1CC (stereo not drawn) [Compound 253]	≥ 90	≥ 90	≥ 95	–
CCn1nc(C)cc1/C(OC(C)OC(=O)C(C)C)=C(\C#N)c1ccc(C(C)(C)C)cc1 (stereo not drawn) [Compound 254]	≥ 90	≥ 90	≥ 95	pest or weed control at 1.25 µg/mL [1, 10]: 97%; pest or weed control at 1.25 µg/mL [1, 7]: ≥ 90%; pest or weed control at 2 µg/mL [2, 11]: ≥ 90%; pest or weed control at 2 µg/mL [2, 12]: 99%; pest or weed control at 2 µg/mL [3, 13]: ≥ 90%; pest or weed control at 0.5 µg/mL [3, 14]: 96%
